Results reported in patent publication US20080249174A1, “Animal Model for Studying Atherosclerotic Lesions” (THE RESEARCH FOUNDATION OF STATE UNIVERSITY OF NEW YORK, priority 2005, published 2008).

How the values were obtained:
[1] = system: CIP.choline-phosphate cytidylyltransferase (CT); details: administration of L-cycloserine; cited from earlier work
[2] = target: mouse Sptlc2 (serine palmitoyl-CoA transferase subunit 2) (mouse) (UniProt P97363); assay: cell-based or functional assay

Compound	stimulation of CT activity [1]	decrease in Sptlc1 protein mass in Sptlc2+/- mouse liver against WT (Western blot of liver homogenate) [2]
N[C@@H]1CON=C1O [L-cycloserine]	74%	–
mouse Sptlc1 (serine palmitoyl-CoA transferase subunit 1) (from UniProt O35704 1-473) (enzyme)	–	70%
